# Source: patent US9902696B2, “1,4-substituted piperidine derivatives” (Cephalon, Inc., priority 2015, dated 2018)
# Counter-ions that a name gives are not always drawn.
# Target: T1, recombinant human baculovirus-expressed GST-tagged FASN (Homo sapiens, UniProt P49327)
# T1 construct: GST
# Test: FASN enzyme activity assay, fluorescence-based detection of CoA with CPM
# Type: biochemical
# Details: 5 nM FASN, 150 μM NADPH, 10 μM acetyl-CoA, 25 μM malonyl-CoA, 90 minutes incubation; read-out: IC50 data for Additional Compounds of Formulae I-V(a): Activity
# Procedure, shortened: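 CoA product reacted with thiol-reactive CPM (diluted to 50 μM in 70% ethanol), read at 390/530 nm after 30 min. Preceding reaction: 90 min, 5 nM recombinant GST-FASN, 150 μM NADPH, 10 μM acetyl-CoA, 25 μM malonyl-CoA, pH 7.5 HEPES, 0.5% DMSO. IC50s fitted by nonlinear sigmoidal regression.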
# T1 sequence (P49327 whole entry): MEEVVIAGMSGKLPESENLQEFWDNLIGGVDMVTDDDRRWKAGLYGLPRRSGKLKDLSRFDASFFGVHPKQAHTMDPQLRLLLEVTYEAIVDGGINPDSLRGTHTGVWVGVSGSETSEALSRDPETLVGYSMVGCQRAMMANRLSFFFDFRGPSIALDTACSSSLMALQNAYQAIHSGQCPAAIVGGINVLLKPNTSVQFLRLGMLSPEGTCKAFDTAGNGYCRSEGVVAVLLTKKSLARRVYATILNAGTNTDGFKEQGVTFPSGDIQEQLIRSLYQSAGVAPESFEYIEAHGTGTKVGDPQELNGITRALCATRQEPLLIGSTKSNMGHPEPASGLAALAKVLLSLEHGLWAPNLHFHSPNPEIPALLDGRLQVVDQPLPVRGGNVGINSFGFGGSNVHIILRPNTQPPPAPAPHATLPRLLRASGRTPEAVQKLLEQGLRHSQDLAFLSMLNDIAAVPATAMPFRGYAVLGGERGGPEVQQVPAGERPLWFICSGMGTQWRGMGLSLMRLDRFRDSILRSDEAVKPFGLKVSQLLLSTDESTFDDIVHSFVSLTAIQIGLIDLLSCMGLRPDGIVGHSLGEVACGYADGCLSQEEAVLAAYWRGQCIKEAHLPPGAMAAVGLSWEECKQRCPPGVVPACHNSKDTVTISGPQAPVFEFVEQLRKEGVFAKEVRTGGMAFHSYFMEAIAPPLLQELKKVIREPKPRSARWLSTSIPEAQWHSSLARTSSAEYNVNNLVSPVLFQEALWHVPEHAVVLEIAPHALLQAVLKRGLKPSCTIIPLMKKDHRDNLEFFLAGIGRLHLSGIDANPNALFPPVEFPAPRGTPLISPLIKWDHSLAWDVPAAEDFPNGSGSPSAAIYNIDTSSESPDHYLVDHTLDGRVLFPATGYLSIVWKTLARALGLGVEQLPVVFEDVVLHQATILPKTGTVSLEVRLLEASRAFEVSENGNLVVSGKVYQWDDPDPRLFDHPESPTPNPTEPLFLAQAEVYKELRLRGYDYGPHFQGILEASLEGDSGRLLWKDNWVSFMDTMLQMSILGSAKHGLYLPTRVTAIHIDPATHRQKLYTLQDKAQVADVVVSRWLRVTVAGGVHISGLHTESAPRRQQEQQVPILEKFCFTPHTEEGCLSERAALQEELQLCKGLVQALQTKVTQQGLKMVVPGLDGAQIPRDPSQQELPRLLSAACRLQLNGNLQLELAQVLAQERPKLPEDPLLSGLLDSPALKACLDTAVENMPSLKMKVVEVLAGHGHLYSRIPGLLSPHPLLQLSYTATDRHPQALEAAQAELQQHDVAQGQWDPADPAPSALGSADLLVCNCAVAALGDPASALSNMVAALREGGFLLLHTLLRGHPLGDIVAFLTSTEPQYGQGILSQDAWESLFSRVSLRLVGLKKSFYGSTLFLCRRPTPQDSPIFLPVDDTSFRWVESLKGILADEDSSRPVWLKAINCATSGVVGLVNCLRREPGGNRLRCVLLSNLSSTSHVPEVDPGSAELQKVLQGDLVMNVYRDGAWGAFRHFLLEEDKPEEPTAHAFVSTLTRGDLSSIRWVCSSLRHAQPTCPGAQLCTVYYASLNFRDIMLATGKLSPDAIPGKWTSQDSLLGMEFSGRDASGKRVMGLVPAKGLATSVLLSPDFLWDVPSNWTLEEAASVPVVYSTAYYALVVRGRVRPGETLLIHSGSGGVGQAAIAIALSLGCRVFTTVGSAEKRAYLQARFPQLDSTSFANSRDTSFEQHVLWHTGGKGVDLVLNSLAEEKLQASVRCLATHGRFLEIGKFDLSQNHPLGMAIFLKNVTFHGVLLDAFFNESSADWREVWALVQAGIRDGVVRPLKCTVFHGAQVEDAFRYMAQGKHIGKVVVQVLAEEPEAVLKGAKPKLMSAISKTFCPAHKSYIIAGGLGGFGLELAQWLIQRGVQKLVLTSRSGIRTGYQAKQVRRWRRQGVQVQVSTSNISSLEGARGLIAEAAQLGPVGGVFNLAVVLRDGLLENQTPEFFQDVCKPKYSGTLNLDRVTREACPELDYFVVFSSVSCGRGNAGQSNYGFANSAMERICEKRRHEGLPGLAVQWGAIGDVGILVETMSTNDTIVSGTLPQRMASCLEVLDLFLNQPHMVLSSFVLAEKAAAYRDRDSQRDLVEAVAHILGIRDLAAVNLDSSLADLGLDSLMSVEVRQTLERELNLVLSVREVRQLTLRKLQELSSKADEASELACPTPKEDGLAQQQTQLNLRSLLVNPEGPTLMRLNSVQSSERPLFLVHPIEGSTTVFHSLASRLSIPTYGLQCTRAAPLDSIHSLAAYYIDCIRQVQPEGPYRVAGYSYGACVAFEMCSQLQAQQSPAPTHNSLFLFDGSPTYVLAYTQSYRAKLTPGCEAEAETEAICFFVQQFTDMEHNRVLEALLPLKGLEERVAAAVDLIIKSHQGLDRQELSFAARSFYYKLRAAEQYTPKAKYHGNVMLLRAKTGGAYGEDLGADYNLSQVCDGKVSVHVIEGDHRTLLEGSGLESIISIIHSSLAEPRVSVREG
row,IC50,SMILES
1,1 to 10 µM,"CCNC(=O)N1CCC(Oc2ccc(-c3ccc4ccc(O)nc4c3C)cc2)CC1 [Example 529, N-Ethyl-4-[4-(2-hydroxy-8-methyl-7-quinolyl)phenoxy]piperidine-1-carboxamide]"
2,0.001 to 0.099 µM,"Cc1c(-c2ccc(OC3CCN(C(=O)NCCN4CCCC4)CC3)cc2)ccc2cccnc12 [Example 530, 4-[4-(8-Methyl-7-quinolyl)phenoxy]-N-(2-pyrrolidin-1-ylethyl)piperidine-1-carboxamide HCl]"
3,1 to 10 µM,"Cc1c(-c2ccc(OC3CCN(C(=O)NCCN4CCOCC4)CC3)cc2)ccc2cccnc12 [Example 531, 4-[4-(8-Methyl-7-quinolyl)phenoxy]-N-(2-morpholinoethyl)piperidine-1-carboxamide HCl]"
4,1 to 10 µM,"Cc1c(-c2ccc(OC3CCN(C(=O)N4CCN(C(C)C)CC4)CC3)cc2)ccc2cccnc12 [Example 532, (4-Isopropylpiperazin-1-yl)-[4-[4-(8-methyl-7-quinolyl)phenoxy]-1-piperidyl]methanone, HCl]"
5,1 to 10 µM,"Cc1c(-c2ccc(OC3CCN(C(=O)N4CCN(C)CC4)CC3)cc2)ccc2cccnc12 [Example 533, (4-Methyllpiperazin-1-yl)-[4-[4-(8-methyl-7-quinolyl)phenoxy]-1-piperidyl]methanone, HCl]"
6,1 to 10 µM,"Cc1c(-c2ccc(OC3CCN(C(=O)N4CCC(N5CCOCC5)CC4)CC3)cc2)ccc2cccnc12 [Example 534, [4-[4-(8-Methyl-7-quinolyl)phenoxy]-1-piperidyl]-(4-morpholino-1-piperidyl)methanone, HCl]"
7,1 to 10 µM,"CCN1CCN(C(=O)N2CCC(Oc3ccc(-c4ccc5cccnc5c4C)cc3)CC2)CC1 [Example 535, (4-Ethyl lpiperazin-1-yl)-[4-[4-(8-methyl-7-quinolyl)phenoxy]-1-piperidyl]methanone tosylate]"

# Same assay, conditions: 5 nM FASN, 150 μM NADPH, 10 μM acetyl-CoA, 25 μM malonyl-CoA, 90 minutes incubation; read-out: IC50 data for Compounds of Formulae I-V/V(a): Activity
row,SMILES,IC50
1,"N#Cc1ccc(-c2ccc(OC3CCN(C(=O)C4CC4)CC3)cc2)cc1 [Example 495, 4′-(1-Cyclopropanecarbonyl-piperidin-4-yloxy)-biphenyl-4-carbonitrile]",0.1 to 0.999 µM
2,"CCC(=O)N1CCC(Oc2cccc(-c3cnc4ccccc4c3)c2)CC1 [Example 496, 1-[4-(3-Quinolin-3-yl-phenoxy)-piperidin-1-yl]-propan-1-one]",1 to 10 µM
3,"O=C(C1CC1)N1CCC(Oc2cccc(-c3cnc4ccccc4c3)c2)CC1 [Example 497, Cyclopropyl-[4-(3-quinolin-3-yl-phenoxy)-piperidin-1-yl]-methanone]",1 to 10 µM
4,"CCC(=O)N1CCC(Oc2ccc(-c3cnc(OC)c(OC)c3)cc2)CC1 [Example 498, 1-{4-[4-(5,6-Dimethoxypyridin-3-yl)-phenoxy]-piperidin-1-yl}-propan-1-one]",1 to 10 µM
5,"COc1cc(-c2ccc(OC3CCN(C(=O)C4CC4)CC3)cc2)cnc1OC [Example 499, Cyclopropyl-{4-[4-(5,6-dimethoxypyridin-3-yl)-phenoxy]-piperidin-1-yl}-methanone]",1 to 10 µM
6,"CCC(=O)N1CCC(Oc2ccc(-c3ccc(Cl)c(Cl)c3)cc2)CC1 [Example 500, 1-[4-(3′,4′-Dichlorobiphenyl-4-yloxy)-piperidin-1-yl]-propan-1-one]",1 to 10 µM
7,"O=C(C1CC1)N1CCC(Oc2ccc(-c3ccc(Cl)c(Cl)c3)cc2)CC1 [Example 501, Cyclopropyl-[4-(3′,4′-dichlorobiphenyl-4-yloxy)-piperidin-1-yl]-methanone]",1 to 10 µM
8,"CCC(=O)N1CCC(Oc2ccc(-c3ccc4c(c3)OCCO4)cc2)CC1 [Example 502, 1-{4-[4-(2,3-Dihydro-1,4-benzodioxin-6-yl)-phenoxy]-piperidin-1-yl}-propan-1-one]",1 to 10 µM
9,"O=C(C1CC1)N1CCC(Oc2ccc(-c3ccc4c(c3)OCCO4)cc2)CC1 [Example 503, Cyclopropyl-{4-[4-(2,3-dihydro-1,4-benzodioxin-6-yl)-phenoxy]-piperidin-1-yl}-methanone]",1 to 10 µM
10,"CCC(=O)N1CCC(Oc2ccc(-c3ccc(OCc4ccccc4)cc3F)cc2)CC1 [Example 504, 1-[4-(4′-Benzyloxy-2′-fluoro-biphenyl-4-yloxy)-piperidin-1-yl]-propan-1-one]",1 to 10 µM
11,"O=C(C1CC1)N1CCC(Oc2ccc(-c3ccc(OCc4ccccc4)cc3F)cc2)CC1 [Example 505, [4-(4′-Benzyloxy-2′-fluorobiphenyl-4-yloxy)-piperidin-1-yl]-cyclopropyl-methanone]",1 to 10 µM
12,"CCC(=O)N1CCC(Oc2ccc(-c3cc(F)cc(OCc4ccccc4)c3)cc2)CC1 [Example 506, 1-[4-(5′-Benzyloxy-3′-fluorobiphenyl-4-yloxy)-piperidin-1-yl]-propan-1-one]",1 to 10 µM
13,"O=C(C1CC1)N1CCC(Oc2ccc(-c3cc(F)cc(OCc4ccccc4)c3)cc2)CC1 [Example 507, [4-(5′-Benzyloxy-3′-fluorobiphenyl-4-yloxy)-piperidin-1-yl]-cyclopropyl-methanone]",1 to 10 µM
14,"CCC(=O)N1CCC(Oc2ccc(-c3ccc(Oc4ccccc4)cc3)cc2)CC1 [Example 508, 1-[4-(4′-Phenoxybiphenyl-4-yloxy)-piperidin-1-yl]-propan-1-one]",1 to 10 µM
15,"O=C(C1CC1)N1CCC(Oc2ccc(-c3ccc(Oc4ccccc4)cc3)cc2)CC1 [Example 509, Cyclopropyl-[4-(4′-phenoxybiphenyl-4-yloxy)-piperidin-1-yl]-methanone]",1 to 10 µM
16,"CCC(=O)N1CCC(Oc2ccc(-c3cccc(Oc4ccccc4)c3)cc2)CC1 [Example 510, 1-[4-(3′-Phenoxybiphenyl-4-yloxy)-piperidin-1-yl]-propan-1-one]",1 to 10 µM
17,"O=C(C1CC1)N1CCC(Oc2ccc(-c3cccc(Oc4ccccc4)c3)cc2)CC1 [Example 511, Cyclopropyl-[4-(3′-phenoxybiphenyl-4-yloxy)-piperidin-1-yl]-methanone]",1 to 10 µM
18,"CC(C)C(=O)N1CCC(S(=O)(=O)c2ccc(-c3ccc4cccnc4c3)cc2)CC1 [Example 512, 2-Methyl-1-[4-(4-quinolin-7-yl-benzenesulfonyl)-piperidin-1-yl]-propan-1-one]",1 to 10 µM
19,"CC(C)C(=O)N1CCC(S(=O)(=O)c2ccc(-c3ccc4ccncc4c3)cc2)CC1 [Example 513, 1-[4-(4-Isoquinolin-7-yl-benzenesulfonyl)-piperidin-1-yl]-2-methylpropan-1-one]",1 to 10 µM
20,"CC(C)C(=O)N1CCC(S(=O)(=O)c2ccc(-c3ccc4cnccc4c3)cc2)CC1 [Example 514, 1-[4-(4-Isoquinolin-6-yl-benzenesulfonyl)-piperidin-1-yl]-2-methyl-propan-1-one]",1 to 10 µM

# The next lines start with the values.
row,IC50,SMILES
1,1 to 10 µM,"CC(C)C(=O)N1CCC(S(=O)(=O)c2ccc(-c3ccc4occc4c3)cc2)CC1 [Example 515, 1-[4-(4-Benzofuran-5-yl-benzenesulfonyl)-piperidin-1-yl]-2-methyl-propan-1-one]"
2,0.001 to 0.099 µM,"CCC(=O)N1CCC(Sc2ccc(-c3ccc4cccnc4c3)cc2)CC1 [Example 516, 1-(4-((4-(quinolin-7-yl)phenyl)thio)piperidin-1-yl)propan-1-one, HCl]"
3,0.001 to 0.099 µM,"CCC(=O)N1CCC(Sc2ccc(-c3ccc4cnccc4c3)cc2)CC1 [Example 517, 1-(4-((4-(Isoquinolin-6-yl)phenyl)thio)piperidin-1-yl)propan-1-one, HCl]"
4,0.001 to 0.099 µM,"CCC(=O)N1CCC(Sc2ccc(-c3cnc4ccccc4c3)cc2)CC1 [Example 518, 1-(4-((4-(Quinolin-3-yl)phenyl)thio)piperidin-1-yl)propan-1-one, HCl]"
5,1 to 10 µM,"CCC(=O)N1CCC(Sc2ccc(-c3cncc4ccccc34)cc2)CC1 [Example 519, 1-(4-((4-(Isoquinolin-4-yl)phenyl)thio)piperidin-1-yl)propan-1-one, HCl]"
6,0.001 to 0.099 µM,"CC(C)C(=O)N1CCC(Sc2ccc(-c3ccc4cccnc4c3)cc2)CC1 [Example 520, HCl]"
7,0.1 to 0.999 µM,"CC(C)C(=O)N1CCC(Sc2ccc(-c3ccc4cnccc4c3)cc2)CC1 [Example 521, 1-(4-((4-(Isoquinolin-6-yl)phenyl)thio)piperidin-1-yl)-2-methylpropan-1-one HCl]"
8,1 to 10 µM,"CC(C)C(=O)N1CCC(Sc2ccc(-c3cnc4ccccc4c3)cc2)CC1 [Example 522, 2-Methyl-1-(4-((4-(quinolin-3-yl)phenyl)thio)piperidin-1-yl)propan-1-one, HCl]"
9,1 to 10 µM,"CC(C)C(=O)N1CCC(Sc2ccc(-c3cncc4ccccc34)cc2)CC1 [Example 523, 1-(4-((4-(Isoquinolin-4-yl)phenyl)thio)piperidin-1-yl)-2-methylpropan-1-one HCl]"
10,0.1 to 0.999 µM,"CCC(=O)N1CCC(N(C)c2ccc(-c3cnc4ccccc4c3)cc2)CC1 [Example 524, 1-{4-[Methyl-(4-quinolin-3-yl-phenyl)-amino]-piperidin-1-yl}-propan-1-one, HCl]"
11,0.1 to 0.999 µM,"CN(c1ccc(-c2cnc3ccccc3c2)cc1)C1CCN(C(=O)C2CC2)CC1 [Example 525, Cyclopropyl-{4-[methyl-(4-quinolin-3-yl-phenyl)-amino]-piperidin-1-yl}-methanone, HCl]"
12,1 to 10 µM,"CCC(=O)N1CCC(Nc2ccc(-c3cnc4ccccc4c3)cc2)CC1 [Example 526, 1-[4-(4-Quinolin-3-yl-phenylamino)-piperidin-1-yl]-propan-1-one, HCl]"
13,1 to 10 µM,"O=C(C1CC1)N1CCC(Nc2ccc(-c3cnc4ccccc4c3)cc2)CC1 [Example 527, Cyclopropyl-[4-(4-quinolin-3-yl-phenylamino)-piperidin-1-yl]-methanone, HCl]"
14,0.1 to 0.999 µM,"CN(c1ccc(-c2cnc3ccccc3c2)cc1)C1CCN(C(=O)[C@H]2CCCO2)CC1 [Example 528, {4-[Methyl-(4-quinolin-3-yl-phenyl)-amino]-piperidin-1-yl}-(R)-tetrahydrofuran-2-yl-methanone, HCl]"
